ChEMBL document CHEMBL1833925, “Synthesis and structure-activity relationship of 4-quinolone-3-carboxylic acid based inhibitors of glycogen synthase kinase-3β” (Bioorg Med Chem Lett, 2011)
Values after ≈ are worked out from the molar mass of the structure shown.

Key:
[1] = biological target: Glycogen synthase kinase-3 beta (Homo sapiens, UniProt P49841); test: Inhibition of human recombinant full length GSK3-beta after 1 hrs by luminescence assay
[2] = tested on: Escherichia coli; test: Antibacterial activity against Escherichia coli after 18 hrs by microdilution assay; assay type: functional
[3] = tested on: Staphylococcus aureus; test: Antibacterial activity against Staphylococcus aureus after 18 hrs by microdilution assay; assay type: functional

Sequence of Glycogen synthase kinase-3 beta (P49841 whole entry): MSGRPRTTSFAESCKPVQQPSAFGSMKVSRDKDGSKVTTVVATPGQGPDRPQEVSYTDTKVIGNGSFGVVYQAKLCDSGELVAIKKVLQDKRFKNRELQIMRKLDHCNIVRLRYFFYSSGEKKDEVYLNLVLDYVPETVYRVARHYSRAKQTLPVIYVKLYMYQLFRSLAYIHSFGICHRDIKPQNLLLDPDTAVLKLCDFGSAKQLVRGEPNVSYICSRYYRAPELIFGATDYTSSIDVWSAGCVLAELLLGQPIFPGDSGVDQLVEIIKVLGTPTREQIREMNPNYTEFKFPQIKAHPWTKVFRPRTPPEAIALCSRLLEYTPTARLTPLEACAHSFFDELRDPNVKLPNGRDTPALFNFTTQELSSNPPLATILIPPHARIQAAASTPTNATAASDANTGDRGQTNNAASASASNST

| IC50 [1] [nM] | MIC [2] [µM] | MIC [3] [µM] | Structure (SMILES) |
| --- | --- | --- | --- |
| 1200 |  |  | CC(C)Nc1c(F)c(N)c2c(=O)c(C(=O)O)cn(C3CC3)c2c1F |
| 600 |  |  | Nc1c(F)c(NC2CCCCC2)c(F)c2c1c(=O)c(C(=O)O)cn2C1CC1 |
| 660 |  |  | Nc1c(F)c(NCCc2c[nH]c3ccccc23)c(F)c2c1c(=O)c(C(=O)O)cn2C1CC1 |
| 2100 |  |  | Nc1c(F)c(NCCN2CCOCC2)c(F)c2c1c(=O)c(C(=O)O)cn2C1CC1 |
| 440 |  |  | Nc1c(F)c(NCCc2ccccc2)c(F)c2c1c(=O)c(C(=O)O)cn2C1CC1 |
| 45 |  |  | Nc1c(F)c(NCCCc2ccccc2)c(F)c2c1c(=O)c(C(=O)O)cn2C1CC1 |
| 290 |  |  | Nc1c(F)c(NCCCCc2ccccc2)c(F)c2c1c(=O)c(C(=O)O)cn2C1CC1 |
| 3400 |  |  | Nc1c(F)c(NCCn2ccnc2)c(F)c2c1c(=O)c(C(=O)O)cn2C1CC1 |
| 45 |  |  | Nc1c(F)c(NCCCn2ccnc2)c(F)c2c1c(=O)c(C(=O)O)cn2C1CC1 |
| 47 |  |  | Nc1c(F)c(NCCNc2cccc3ccccc23)c(F)c2c1c(=O)c(C(=O)O)cn2C1CC1 |
| 100 |  |  | Nc1c(F)c(NCCc2ccncc2)c(F)c2c1c(=O)c(C(=O)O)cn2C1CC1 |
| 190 |  |  | Nc1c(F)c(NCCNc2ccccn2)c(F)c2c1c(=O)c(C(=O)O)cn2C1CC1 |
| 110 |  |  | CC(C)OCCCNc1c(F)c(N)c2c(=O)c(C(=O)O)cn(C3CC3)c2c1F |
| 17000 |  |  | COc1c(NCCCc2ccccc2)c(F)cc2c(=O)c(C(=O)O)cn(C3CC3)c12 |
| 65 |  |  | COc1c(NCCCc2ccccc2)c(F)c(N)c2c(=O)c(C(=O)O)cn(C3CC3)c12 |
| 26000 |  |  | COc1c(NCCNc2cccc3ccccc23)c(F)cc2c(=O)c(C(=O)O)cn(C3CC3)c12 |
| 31 |  |  | COc1c(NCCNc2cccc3ccccc23)c(F)c(N)c2c(=O)c(C(=O)O)cn(C3CC3)c12 |

| IC50 [1] [nM] | MIC [2] [µM] | MIC [3] [µM] | Structure (SMILES) |
| --- | --- | --- | --- |
| 13 | 0.8 (≈ 0.318 µg/mL) | 0.2 (≈ 0.0795 µg/mL) | Nc1c(F)c(NCCNc2ccccn2)cc2c1c(=O)c(C(=O)O)cn2C1CC1 |
| 160 | 9 (≈ 3.85 µg/mL) | 1 (≈ 0.427 µg/mL) | COc1c(NCCNc2ccccn2)c(F)c(N)c2c(=O)c(C(=O)O)cn(C3CC3)c12 |
| 1500 | > 28 | 7 (≈ 3.19 µg/mL) | COc1c(NCCNc2ccccn2)c(F)c(N)c2c(=O)c(C(=O)O)cn(C3CCCC3)c12 |
| 22 | > 29 | > 29 | Nc1c(F)c(NCCNc2ccccn2)c(F)c2c1c(=O)c(C(=O)O)cn2C1CCCC1 |
| 1000 | 25 (≈ 9.68 µg/mL) | 25 (≈ 9.68 µg/mL) | COc1c(NCCNc2ccccn2)c(F)c(N)c2c(=O)c(C(=O)O)c[nH]c12 |
| 270 | > 13 | 13 (≈ 5.22 µg/mL) | COc1c(NCCNc2ccccn2)c(F)c(N)c2c(=O)c(C(=O)O)cn(C)c12 |
| 16000 | > 28 | > 28 | COc1c(NCCNc2ccccn2)c(F)c(N)c2c(=O)c(C(=O)O)cn(CCC(C)C)c12 |
| 560 | > 243 | 243 (≈ 100 µg/mL) | C[C@@H]1COc2c(NCCNc3ccccn3)c(F)c(N)c3c(=O)c(C(=O)O)cn1c23 |
| 44 | 4 (≈ 1.65 µg/mL) | 2 (≈ 0.827 µg/mL) | C[C@H]1COc2c(NCCNc3ccccn3)c(F)c(N)c3c(=O)c(C(=O)O)cn1c23 |
| 31 | > 2 | > 2 | CC(C)[C@@H]1COc2c(NCCNc3ccccn3)c(F)c(N)c3c(=O)c(C(=O)O)cn1c23 |
| 75 | > 29 | 14 (≈ 6.18 µg/mL) | CC(C)[C@H]1COc2c(NCCNc3ccccn3)c(F)c(N)c3c(=O)c(C(=O)O)cn1c23 |
| 49 | 59 (≈ 25.2 µg/mL) | 59 (≈ 25.2 µg/mL) | CC1(C)COc2c(NCCNc3ccccn3)c(F)c(N)c3c(=O)c(C(=O)O)cn1c23 |
| 440 | > 37 | > 37 | CC1(C)Cn2cc(C(=O)O)c(=O)c3c(N)c(F)c(NCCNc4ccccn4)c(c32)O1 |
| 160 | > 7 | > 7 | CC1(C)COc2c(NCCNc3ccccn3)c(F)c(N)c3c(=O)c(C(=O)O)cn(c23)C1 |
| 57 | > 36 | > 36 | Nc1c(F)c(NCCNc2ccccn2)c2c3c1c(=O)c(C(=O)O)cn3C1(CCC1)CO2 |
| 12 | > 71 | 71 (≈ 32.2 µg/mL) | Nc1c(F)c(NCCNc2ccccn2)c2c3c1c(=O)c(C(=O)O)cn3C1(CCCC1)CO2 |
| 900 |  |  | Nc1ccc(CCNc2c(F)c(N)c3c(=O)c(C(=O)O)cn(C4CC4)c3c2F)cc1 |
